Eight compounds from patent publication US11370794B2, “Toll-like receptor antagonist compounds and methods of use” (Dynavax Technologies Corporation, priority 2016, dated 2022) can be followed below.

A word on the IC50: it is the concentration needed to halve the response being measured.

Like-named read-outs stand apart in the source and are kept apart here.

One assay has as its target T1, human TLR8 (Homo sapiens, UniProt Q9NR97).
T1 construct: endogenous in cells; host or cells: primary human monocytes (CD14 microbeads) from buffy coats of healthy donors
T1 sequence (Q9NR97 27-1041): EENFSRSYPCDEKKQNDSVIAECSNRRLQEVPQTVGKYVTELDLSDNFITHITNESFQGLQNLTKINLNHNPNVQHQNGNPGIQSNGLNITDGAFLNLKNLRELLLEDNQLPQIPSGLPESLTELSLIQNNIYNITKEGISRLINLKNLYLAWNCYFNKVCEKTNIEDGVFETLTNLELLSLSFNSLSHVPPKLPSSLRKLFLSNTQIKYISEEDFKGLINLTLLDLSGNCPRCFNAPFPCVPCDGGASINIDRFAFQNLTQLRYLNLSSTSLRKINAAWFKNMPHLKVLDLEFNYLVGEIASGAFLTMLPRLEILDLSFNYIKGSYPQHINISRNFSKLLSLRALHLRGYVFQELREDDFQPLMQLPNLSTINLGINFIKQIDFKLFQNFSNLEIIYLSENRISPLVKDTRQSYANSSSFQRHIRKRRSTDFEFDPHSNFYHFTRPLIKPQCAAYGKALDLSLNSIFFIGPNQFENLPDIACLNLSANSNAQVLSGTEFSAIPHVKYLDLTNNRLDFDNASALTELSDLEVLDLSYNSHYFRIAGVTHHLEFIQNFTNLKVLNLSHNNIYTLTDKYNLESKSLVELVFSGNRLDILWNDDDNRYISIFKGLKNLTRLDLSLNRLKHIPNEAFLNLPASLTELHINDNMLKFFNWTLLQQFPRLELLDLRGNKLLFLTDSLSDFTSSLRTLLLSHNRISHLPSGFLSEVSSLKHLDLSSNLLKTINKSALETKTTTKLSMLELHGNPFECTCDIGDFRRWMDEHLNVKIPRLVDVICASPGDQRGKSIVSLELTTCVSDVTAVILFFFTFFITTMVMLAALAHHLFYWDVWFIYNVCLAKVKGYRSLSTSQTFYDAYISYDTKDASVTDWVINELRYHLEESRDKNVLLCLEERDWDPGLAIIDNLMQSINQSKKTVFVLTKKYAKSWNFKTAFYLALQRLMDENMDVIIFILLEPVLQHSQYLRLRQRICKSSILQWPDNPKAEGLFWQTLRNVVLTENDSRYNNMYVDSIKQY
In words: Inhibition of human TLR8 in human monocytes (TNF-alpha / IL-1 beta ELISA). The settings on record: for IC50: human monocytes, agonist ORN8L 100 μg/mL, 24 hours; for inhibits TLR8-dependent responses (in words): summary statement of the description. It is filed as cell-based. The method in brief: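 Primary human monocytes from donor buffy coats (~200,000 cells/well) given serially diluted compound, then ORN8L RNA oligonucleotide agonist at 100 μg/mL final. After 24 h at 37 °C, supernatant TNF-alpha and/or IL-1 beta measured by ELISA; IC50 from the concentration-response of cytokine release.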

The target of the next assay is T2, human TLR7 (Homo sapiens, UniProt Q9NYK1).
T2 construct: Human plasmacytoid dendritic cells were plated into 96 well plates; endogenous in cells; host or cells: primary human plasmacytoid dendritic cells from buffy coats of healthy donors
T2 sequence (Q9NYK1 27-1049): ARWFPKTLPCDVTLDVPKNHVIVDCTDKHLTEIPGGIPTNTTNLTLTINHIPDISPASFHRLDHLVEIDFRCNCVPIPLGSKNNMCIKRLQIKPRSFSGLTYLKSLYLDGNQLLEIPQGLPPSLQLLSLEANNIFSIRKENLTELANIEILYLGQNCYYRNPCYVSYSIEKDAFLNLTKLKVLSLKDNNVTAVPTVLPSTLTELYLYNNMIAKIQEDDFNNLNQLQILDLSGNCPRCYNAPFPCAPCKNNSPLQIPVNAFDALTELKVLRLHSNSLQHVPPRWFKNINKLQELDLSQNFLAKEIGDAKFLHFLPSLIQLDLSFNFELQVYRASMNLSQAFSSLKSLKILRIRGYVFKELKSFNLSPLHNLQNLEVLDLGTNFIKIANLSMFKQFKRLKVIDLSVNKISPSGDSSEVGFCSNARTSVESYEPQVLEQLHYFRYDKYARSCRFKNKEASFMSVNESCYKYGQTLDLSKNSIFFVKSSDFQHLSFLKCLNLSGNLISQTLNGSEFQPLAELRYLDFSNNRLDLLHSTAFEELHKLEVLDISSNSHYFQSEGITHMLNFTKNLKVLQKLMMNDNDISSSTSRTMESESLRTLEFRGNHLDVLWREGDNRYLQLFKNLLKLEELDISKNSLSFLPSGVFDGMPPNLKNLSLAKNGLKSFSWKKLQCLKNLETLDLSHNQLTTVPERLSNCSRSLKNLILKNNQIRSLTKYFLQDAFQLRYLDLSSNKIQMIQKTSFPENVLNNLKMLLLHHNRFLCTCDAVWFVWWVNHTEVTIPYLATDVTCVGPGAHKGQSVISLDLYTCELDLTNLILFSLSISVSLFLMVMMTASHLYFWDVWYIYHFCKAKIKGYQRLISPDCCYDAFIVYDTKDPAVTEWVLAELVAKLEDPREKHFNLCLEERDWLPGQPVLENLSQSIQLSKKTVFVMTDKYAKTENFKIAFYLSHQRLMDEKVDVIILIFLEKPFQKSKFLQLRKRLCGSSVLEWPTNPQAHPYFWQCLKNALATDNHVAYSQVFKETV
The experiment in a line: Inhibition of human TLR7 in human plasmacytoid dendritic cells (interferon-alpha ELISA). The conditions noted are these: agonist heat inactivated influenza virus, 24 hours. It is filed as cell-based.

Setting [1] is: IL-1 beta readout, read-out: Human TLR8 IC50 IL-1b.
Setting [2] is: TNF-alpha readout, read-out: Human TLR8 IC50 TNF-a.

Turning to `Cc1ccc(-n2nc3c(N4CCC(C(=O)NCCCc5c[nH]cn5)CC4)nnc(C)c3c2C)cc1` [Compound No. 6, N-(3-(1H-imidazol-4-yl)propyl)-1-(3,4-dimethyl-2-(p-tolyl)-2H-pyrazolo[3,4-d]pyridazin-7-yl)piperidine-4-carboxamide], the IC50 was more than 10 µM on human TLR8 (setting [1]), 6.68 µM on human TLR8 (setting [2]) and more than 10 µM on human TLR7.

`Cc1ccc(-n2nc3c(N4CCC(C(=O)NC5CN(Cc6ccccc6)C5)CC4)nnc(C)c3c2C)cc1` [Compound No. 4, N-(1-benzylazetidin-3-yl)-1-(3,4-dimethyl-2-(p-tolyl)-2H-pyrazolo[3,4-d]pyridazin-7-yl)piperidine-4-carboxamide]: the results for the IC50 at human TLR8 (setting [1]), on human TLR8 (setting [2]) and at human TLR7 were 1.01 µM, 0.77 µM and 3.36 µM, respectively. In addition, the “inhibits TLR8-dependent responses (in words)” value against human TLR8 is listed as “inhibit”.

On to `Cc1ccc(-n2nc3c(N4CCC(C(=O)NCC(C)(C)CNc5ccccc5)CC4)nnc(C)c3c2C)cc1` [2-1], for which the results for the IC50 on human TLR8 (setting [1]), on human TLR8 (setting [2]) and at human TLR7 were 9.92 µM, 9.77 µM and more than 10 µM, respectively.

In the case of `Cc1ccc(-n2nc3c(N4CCC(C(=O)NCCCN(C)C)CC4)nnc(C)c3c2C)cc1` [Compound No. 5, 1-(3,4-dimethyl-2-(p-tolyl)-2H-pyrazolo[3,4-d]pyridazin-7-yl)-N-(3-(dimethylamino)propyl)piperidine-4-carboxamide], the half-maximal inhibitory concentration (IC50) on human TLR8 (setting [1]) was more than 10 µM; on human TLR8 (setting [2]) it was more than 10 µM; on human TLR7, 2.23 µM.

Consider `Cc1ccc(-n2nc3c(N4CCC(C(=O)N5CCN(Cc6ccccc6)CC5)CC4)nnc(C)c3c2C)cc1` [Compound No. 2, (4-benzylpiperazin-1-yl)(1-(3,4-dimethyl-2-(p-tolyl)-2H-pyrazolo[3,4-d]pyridazin-7-yl)piperidin-4-yl)methanone], for which the IC50 on human TLR8 (setting [1]) was 0.9 µM; on human TLR8 (setting [2]), 0.67 µM; on human TLR7 it was 9.93 µM. Besides, the “inhibits TLR8-dependent responses (in words)” value on human TLR8 was “inhibit”.

In the case of `Cc1ccc(-n2nc3c(N4CCC(CCC(=O)NCCN(C)C)CC4)nnc(C)c3c2C)cc1` [Compound No. 9, 3-(1-(3,4-dimethyl-2-(p-tolyl)-2H-pyrazolo[3,4-d]pyridazin-7-yl)piperidin-4-yl)-N-(2-(dimethylamino)ethyl)propanamide], the IC50 was 5.02 µM at human TLR8 (setting [1]), 1.22 µM on human TLR8 (setting [2]) and more than 10 µM on human TLR7.

With `Cc1ccc(-n2nc3c(N4CCC(C(=O)NCCCN(C)Cc5ccccc5)CC4)nnc(C)c3c2C)cc1` [Compound No. 1, N-(3-(benzyl(methyl)amino)propyl)-1-(3,4-dimethyl-2-(p-tolyl)-2H-pyrazolo[3,4-d]pyridazin-7-yl)piperidine-4-carboxamide], the IC50 was determined as 0.74 µM at human TLR8 (setting [1]), 0.62 µM on human TLR8 (setting [2]) and 2.97 µM on human TLR7. Moreover, at human TLR8, the “inhibits TLR8-dependent responses (in words)” value was “inhibit”.

Consider `Cc1ccc(-n2nc3c(N4CCC(C(=O)NC5CN(C)C5)CC4)nnc(C)c3c2C)cc1` [Compound No. 3, 1-(3,4-dimethyl-2-(p-tolyl)-2H-pyrazolo[3,4-d]pyridazin-7-yl)-N-(1-methylazetidin-3-yl)piperidine-4-carboxamide], for which the 50% inhibitory concentration (IC50) on human TLR8 (setting [1]) and at human TLR8 (setting [2]) was more than 10 µM throughout.
